Data reported in patent US20040142821A1, “Pesticide composition comprising malononitrile compounds” (priority 2001, published 2004).

What was measured:
[1] = system: Musca domestics; assay: Pesticidal test against Musca domestics, treated filter paper with sucrose bait (Test Example 5); type: in vivo; details: 500 ppm test liquid (Formulation Example 5), 0.7 ml on filter paper, ten female adults, after 24 hours
Procedure: Ten female adults of Musca domestics (house fly) were set free in the polyethylene cup, which was then kept covered. After 24 hours, their survival was examined to determine the mortality.

[2] = system: German cockroach; assay: Pesticidal test against German cockroach, treated filter paper with sucrose bait (Test Example 6); type: in vivo; details: Blattella germanica, 144 h; 500 ppm test liquid (Formulation Example 5), 0.7 ml on filter paper; two male adults; after 6 days
From the text: Two male adults of German cockroach (Blattalla germanica) were set free in the polyethylene cup, which was then kept covered. After 6 days, their survival was examined to determine the mortality.

[3] = system: Cullex pipiens pallens; assay: whole plant or invertebrate; details: 24 h
Procedure: In 100 ml of ion-exchanged water, the test liquid had been prepared as described above, was added dropwise in an amount of 0.7 ml (the concentration of active ingredient was 3.5 ppm). Twenty final-instar larvae of Cullex pipiens pallens (common mosquito) were set free in the solution. After 1 days, their survival was examined to determine the mortality.

Row | SMILES | mortality at 500 ppm [1] | mortality at 500 ppm [2] | mortality at 3.5 µg/mL [3]
1 | C=CCC(C#N)(C#N)Cc1cccc(OC(F)(F)F)c1 [Compound 89, 2-allyl-2-(3-(trifluoromethoxy)benzyl)malononitrile] | 100% | 100% | 100%
2 | C=CCCC(C#N)(C#N)Cc1ccc(C(F)(F)F)cc1Cl [Compound 60, 2-(3-butenyl)-2-(2-chloro-4-(trifluoromethyl)benzyl)malononitrile] | 100% | 100% | 100%
3 | C=CCC(C#N)(C#N)Cc1ccc(C(F)(F)F)c(F)c1 [Compound 69, 2-allyl-2-(3-fluoro-4-(trifluoromethyl)benzyl)malononitrile] | 100% | 100% | 100%
4 | C=CCC(C#N)(C#N)C(C#N)c1ccc(OC(F)(F)F)cc1 (stereo not drawn) [Compound 55, 2-allyl-2-(4-(trifluoromethoxy)-α-cyanobenzyl)malononitrile] | 100% | 100% | 100%
5 | CC#CCC(C#N)(C#N)Cc1ccc(OC(F)(F)F)cc1 [Compound 59, 2-(2-butynyl)-2-(4-(trifluoromethoxy)benzyl)malononitrile] | 100% | 100% | 100%
6 | C=CCC(C#N)(C#N)Cc1cccc(F)c1F [Compound 114, 2-allyl-2-(2,3-difluorobenzyl)malononitrile] | 100% | 100% | –
7 | CC(C)CC(C#N)(C#N)Cc1ccc(C(F)(F)F)cc1 [Compound 110, 2-(2-methylpropyl)-2-(4-(trifluoromethyl)benzyl)malononitrile] | 100% | 100% | 100%
8 | CCCCC(C#N)(C#N)Cc1ccc(C(F)(F)F)cc1 [Compound 109, 2-butyl-2-(4-(trifluoromethyl)benzyl)malononitrile] | 100% | 100% | 100%
9 | CC=CCC(C#N)(C#N)Cc1ccc(SC(F)(F)F)cc1 [Compound 46, 2-(2-butenyl)-2-(4-(trifluoromethylthio)benzyl)malononitrile] | 100% | 100% | 100%
10 | C=CCC(C#N)(C#N)Cc1cccc(Cl)c1 [Compound 17, 2-allyl-2-(3-chlorobenzyl)malononitrile] | 100% | 100% | 100%
11 | C=CCCC(C#N)(C#N)Cc1ccc(C(F)(F)F)cc1 [Compound 52, 2-(3-butenyl)-2-(4-(trifluoromethyl)benzyl)malononitrile] | 100% | 100% | 100%
12 | C=CC(C)C(C#N)(C#N)Cc1ccc(SC(F)(F)F)cc1 (centres unmarked) [Compound 47, 2-(1-methyl-2-propenyl)-2-(4-(trifluoromethylthio)benzyl)malononitrile] | 100% | 100% | 100%
13 | C=CCCC(C#N)(C#N)Cc1ccc(OC(F)(F)F)cc1 [Compound 15, 2-(3-butenyl)-2-(4-(trifluoromethoxy)benzyl)malononitrile] | 100% | 100% | 100%
14 | C=CCCC(C#N)(C#N)C(C=C)c1ccc(OC(F)(F)F)cc1 (centres unmarked) [Compound 32, 2-(3-butenyl)-2-(1-(4-(trifluoromethoxy)phenyl)-2-propenyl)malononitrile] | 100% | 100% | 100%
15 | C=CCCC(C#N)(C#N)Cc1ccc(OC(F)F)cc1 [Compound 36, 2-(3-butenyl)-2-(4-(difluoromethoxy)benzyl)malononitrile] | 100% | 100% | 100%
16 | C=CCC(C#N)(C#N)C(C#N)c1ccc(SC(F)(F)F)cc1 (stereo not drawn) [Compound 56, 2-allyl-2-(4-(trifluoromethylthio)-α-cyanobenzyl)malononitrile] | 100% | 100% | 100%
17 | C=CCCCC(C#N)(C#N)Cc1ccc(C(F)(F)F)cc1 [Compound 79, 2-(4-pentenyl)-2-(4-(trifluoromethyl)benzyl)malononitrile] | 100% | 100% | 100%
18 | C=CCC(C#N)(C#N)Cc1ccc(C(C)C)cc1 [Compound 102, 2-allyl-2-(4-isopropylbenzyl)malononitrile] | 100% | 100% | 100%
19 | C=CCC(C#N)(C#N)Cc1ccc(OC(C)CC)cc1 (centres unmarked) [Compound 115, 2-allyl-2-(4-(2-butyloxy)benzyl)malononitrile] | 100% | – | 100%
20 | C=CCC(C#N)(C#N)Cc1ccc(C(F)(F)F)cc1Cl [Compound 58, 2-allyl-2-(2-chloro-4-(trifluoromethyl)benzyl)malononitrile] | 100% | 100% | 100%
21 | C=CCC(C#N)(C#N)Cc1ccc(Oc2cccc(C)c2)cc1 [Compound 119, 2-allyl-2-(4-(m-tolyloxy)benzyl)malononitrile] | – | 100% | –
22 | CC(C)CCC(C#N)(C#N)Cc1ccc(OC(F)(F)F)cc1 [Compound 45, 2-(3-methylbutyl)-2-(4-(trifluoromethoxy)benzyl)malononitrile] | 100% | – | 100%
23 | C=CCC(C#N)(C#N)Cc1ccc(Oc2ccc(Cl)cc2)cc1 [Compound 121, 2-allyl-2-(4-(p-chlorophenoxy)benzyl)malononitrile] | – | 100% | 100%
24 | CCCC(C#N)(C#N)Cc1ccc(C(F)(F)F)cc1 [Compound 71, 2-propyl-2-(4-(trifluoromethyl)benzyl)malononitrile] | 100% | – | 100%
25 | C=CCC(C#N)(C#N)C(C#N)c1ccc(C)cc1 (stereo not drawn) [Compound 92, 2-allyl-2-(4-methyl-α-cyanobenzyl)malononitrile] | 100% | – | 100%
26 | CCC(C)C(C#N)(C#N)Cc1ccc(C(F)(F)F)cc1 (centres unmarked) [Compound 111, 2-(1-methylpropyl)-2-(4-(trifluoromethyl)benzyl)malononitrile] | 100% | – | 100%
27 | C=CCCC(C#N)(C#N)Cc1ccc(OC(F)(F)Br)cc1 [Compound 35, 2-(3-butenyl)-2-(4-(bromodifluoromethoxy)benzyl)malononitrile] | 100% | – | 100%
28 | C=C(C)CC(C#N)(C#N)Cc1ccc(C(F)(F)F)cc1 [Compound 108, 2-(2-methyl-2-propenyl)-2-(4-(trifluoromethyl)benzyl)malononitrile] | 100% | – | 100%
29 | C=CCC(C#N)(C#N)Cc1ccc(CC)cc1 [Compound 101, 2-allyl-2-(4-ethylbenzyl)malononitrile] | 100% | – | 100%
30 | C=CCC(C#N)(C#N)Cc1c(F)cc(F)cc1F [Compound 120, 2-allyl-2-(2,4,6-trifluorobenzyl)malononitrile] | 100% | 100% | –
